Source: patent US5428059A, “Benzopyran derivatives and an anti-allergic agent possessing the same as the active ingredient” (Dainippon Ink & Chemicals, Inc., priority 1991, dated 1995)

These compounds were tested on Hartley-type male guinea pigs (assay: Guinea Pig Homogeneous Skin Passive Anaphylaxis Assay (PCA reaction)). Conditions: Cavia porcellus, 10 mg/kg oral, 48 h after sensitization, read-out: Allergic reaction inhibitory index (%).
Type: in vivo, guinea pig (Hartley-type)
How it was run: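 Male Hartley guinea pigs (250~300 g) given intradermal back injections of 120-fold-diluted anti-OVA serum; 48 h later test substance dosed orally at 10 mg/kg, then challenged i.v. with OVA plus Evans Blue. Dye-spot area (long × short diameter, mm^2) measured at 30 min; inhibition % calculated against solvent control.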

Compound	inhibition in vivo at 10 mg/kg
CC(C)=CCC/C(C)=C/COc1cccc2c(OC(C)C)c(OC(=O)c3ccccc3)c(=O)oc12 [Compound 165, 3-(benzoyloxy)-4-(isopropoxy)-8-(geranyloxy)-2H-1-benzopyran-2-one]	30%
COc1c(OC/C=C(\C)CCC=C(C)C)c(=O)oc2cccc(O)c12 [Compound 191, 3-(geranyloxy)-4-(methoxy)-5-hydroxy-2H-1-benzopyran-2-one]	30%
CCCCCCCCCCOc1c(OC(C)=O)c(=O)oc2c(OC)cccc12 [Compound 118, 3-(acetoxy)-4-(decyloxy)-8-(methoxy)-2H-1-benzopyran-2-one]	32%
CC(C)=CCC/C(C)=C/COc1c(O)c(=O)oc2c(O)cccc12 [Compound 103, 3,8-(dihydroxy)-4-(geranyloxy)-2H-1-benzopyran-2-one]	30%
CC(=O)Oc1c(OC(C)C)c2c(O)cccc2oc1=O [Compound 185, 3-(acetoxy)-4-(isopropoxy)-5-hydroxy-2H-1-benzopyran-2-one]	30%
CCCCCCCCCCOc1cccc2c(OC/C=C(\C)CCC=C(C)C)c(OC(=O)c3ccccc3)c(=O)oc12 [Compound 154, 3-(benzoyloxy)-4-(geranyloxy)-8-(decyloxy)-2H-1-benzopyran-2-one]	31%
COc1cccc2c(O)c(O)c(=O)oc12 [Compound 111, 3,4-(dihydroxy)-8-(methoxy)-2H-1-benzopyran-2-one]	38%
CCCCOc1cccc2c(O)c(OC(=O)c3ccccc3)c(=O)oc12 [Compound 127, 3-(benzoyloxy)-4-hydroxy-8-(butyloxy)-2H-1-benzopyran-2-one]	34%
CC(C)=CCC/C(C)=C/COc1c(OC(C)C)c(=O)oc2cccc(O)c12 [Compound 192, 3-(isopropoxy)-4-(geranyloxy)-5-hydroxy-2H-1-benzopyran-2-one]	37%
COc1c(OC/C=C(\C)CCC=C(C)C)c(=O)oc2cccc(OC/C=C(\C)CCC=C(C)C)c12 [Compound 257, 3,5-(digeranyloxy)-4-(methoxy)-2H-1-benzopyran-2-one]	31%
COc1c(OC)c2ccc(O)cc2oc1=O [Compound 17, 3,4-(dimethoxy)-7-hydroxy-2H-1-benzopyran-2-one]	31%
COc1ccc2c(OC/C=C(\C)CCC=C(C)C)c(OC)c(=O)oc2c1 [Compound 42, 3,7-(dimethoxy)-4-(geranyloxy)-2H-1-benzopyran-2-one]	33%
CC(C)Oc1ccc2c(O)c(OC(=O)c3ccccc3)c(=O)oc2c1 [Compound 44, 3-(benzoyloxy)-4-(hydroxy)-7-(isopropoxy)-2H-1-benzopyran-2-one]	37%
CCCCCCCCCCOc1c(O)c2cc(OC)ccc2oc1=O [Compound 274]	35%
CCCCCCCCCCOc1c(OC(=O)c2ccccc2)c2c(OC)cccc2oc1=O [Compound 202, 3-(decyloxy)-4-(benzoyloxy)-5-(methoxy)-2H-1-benzopyran-2-one]	30%
COc1cccc2c(OC(=O)c3ccccc3)c(OC(C)C)c(=O)oc12 [Compound 119, 3-(isopropoxy)-4-(benzoyloxy)-8-(methoxy)-2H-1-benzopyran-2-one]	30%
COc1cccc2c(OC(C)C)c(OC/C=C(\C)CCC=C(C)C)c(=O)oc12 [Compound 124, 3-(geranyloxy)-4-(isopropoxy)-8-(methoxy)-2H-1-benzopyran-2-one]	33%
CC(C)Oc1cccc2c(O)c(OC(=O)c3ccccc3)c(=O)oc12 [Compound 129, 3-(benzoyloxy)-4-hydroxy-8-(isopropoxy)-2H-1-benzopyran-2-one]	36%
COc1cccc2c(OC/C=C(\C)CCC=C(C)C)c(OC(C)=O)c(=O)oc12 [Compound 123, 3-(acetoxy)-4-(geranyloxy)-8-(methoxy)-2H-1-benzopyran-2-one]	34%
CC(C)=CCC/C(C)=C/COc1cccc2oc(=O)c(OC(=O)c3ccccc3)c(O)c12 [Compound 244, 3-(benzoyloxy)-4-hydroxy-5-(geranyloxy)-2H-1-benzopyran-2-one]	33%
CC(C)Oc1cccc2oc(=O)c(OC(=O)c3ccccc3)c(O)c12 [Compound 210, 3-(benzoyloxy)-4-hydroxy-5-(isopropoxy)-2H-1-benzopyran-2-one]	40%
CC(C)Oc1ccc2c(OC(=O)c3ccccc3)c(OC(=O)c3ccccc3)c(=O)oc2c1 [Compound 47, 3,4-(dibenzoyloxy)-7-(isopropoxy)-2H-1-benzopyran-2-one]	31%
CCCCCCCCCCOc1c(OC(C)C)c2c(OC/C=C(\C)CCC=C(C)C)cccc2oc1=O [Compound 250, 3-(decyloxy)-4-(isopropoxy)-5-(geranyloxy)-2H-1-benzopyran-2-one]	31%

Compound	inhibition in vivo at 10 mg/kg
COc1cccc2c(OC(C)C)c(O)c(=O)oc12 [Compound 116, 3-hydroxy-4-(isopropoxy)-8-(methoxy).2H-1-benzopyran-2-one]	34%
CC(C)=CCC/C(C)=C/COc1c(OC/C=C(\C)CCC=C(C)C)c2c(O)cccc2oc1=O [Compound 193, 3,4-(digeranyloxy)-5-hydroxy-2H-1-benzopyran-2-one]	30%
CCCCCCCCCCOc1ccc2c(OC/C=C(\C)CCC=C(C)C)c(OC(=O)c3ccccc3)c(=O)oc2c1 [Compound 70, 3-(benzoyloxy)-4-(geranyloxy)-7-(decyloxy)-2H-1-benzopyran-2-one]	30%
CCCCCCCCCCOc1ccc2c(OC(C)=O)c(O)c(=O)oc2c1 [Compound 60, 3-hydroxy-4-(acetoxy)-7-(decyloxy)-2H-1-benzopyran-2-one]	35%
CC(C)=CCC/C(C)=C/COc1ccc2c(OC(C)C)c(OC(=O)c3ccccc3)c(=O)oc2c1 [Compound 81, 3-(benzoyloxy)-4-(isopropoxy)-7-(geranyloxy)-2H-1-benzopyran-2-one]	31%
CC(=O)Oc1c(OC(C)=O)c2cccc(OC(C)C)c2oc1=O [Compound 132, 3,4-(diacetoxy)-8-(isopropoxy)-2H-1-benzopyran-2-one]	32%
CC(C)=CCC/C(C)=C/COc1ccc2c(O)c(OC(=O)c3ccccc3)c(=O)oc2c1 [Compound 74, 3-(benzoyloxy)-4-hydroxy-7-(geranyloxy)-2H-1-benzopyran-2-one]	34%
CCCCCCCCCCOc1c(O)c2cccc(OC(C)C)c2oc1=O [Compound 133, 3-(decyloxy)-4-hydroxy-8-(isopropoxy)-2H-1-benzopyran-2-one]	36%
CC(=O)Oc1c(OC/C=C(\C)CCC=C(C)C)c(=O)oc2cc(O)ccc12 [Compound 21, 3-(geranyloxy)-4-(acetoxy)-7-hydroxy-2H-1-benzopyran-2-one]	33%
CC(=O)Oc1c(OC/C=C(\C)CCC=C(C)C)c(=O)oc2cc(OC/C=C(\C)CCC=C(C)C)ccc12 [Compound 85, 3,7-(digeranyloxy)-4-(acetoxy)-2H-1-benzopyran-2-one]	33%
CCCCCCCCCCOc1ccc2c(OC)c(OC/C=C(\C)CCC=C(C)C)c(=O)oc2c1 [Compound 71, 3-(geranyloxy)-4-(methoxy)-7-(decyloxy)-2H-1-benzopyran-2-one]	30%
COc1c(OC(C)=O)c2c(OC/C=C(\C)CCC=C(C)C)cccc2oc1=O [Compound 252, 3-(methoxy)-4-(acetoxy)-5-(geranyloxy)-2H-1-benzopyran-2-one]	32%
CCCCCCCCCCOc1cccc2c(OC/C=C(\C)CCC=C(C)C)c(OC/C=C(\C)CCC=C(C)C)c(=O)oc12 [Compound 157, 3,4-(digeranyloxy)-8-(decyloxy)-2H-1-benzopyran-2-one]	30%
CC(C)Oc1cccc2oc(=O)c(O)c(O)c12 [Compound 211, 3,4-(dihydroxy)-5-(isopropoxy)-2H-1-benzopyran-2-one]	52%
CCCCCCCCCCOc1ccc2c(OC/C=C(\C)CCC=C(C)C)c(OC(C)C)c(=O)oc2c1 [Compound 72, 3-(isopropoxy)-4-(geranyloxy)-7-(decyloxy)-2H-1-benzopyran-2-one]	34%
CC(=O)Oc1c(OC/C=C(\C)CCC=C(C)C)c(=O)oc2cccc(O)c12 [Compound 189, 3-(geranyloxy)-4-(acetoxy)-5-hydroxy-2H-1-benzopyran-2-one]	30%
CC(C)Oc1c(O)c2c(O)cccc2oc1=O [Compound 182, 3-(isopropoxy)-4,5-(dihydroxy)-2H-1-benzopyran-2-one]	31%
CCCCOc1cccc2c(O)c(O)c(=O)oc12 [Compound 128, 3,4-(dihydroxy)-8-(butyloxy)-2H-1-benzopyran-2-one]	40%
CCCCCCCCCCOc1c(O)c(=O)oc2cccc(OC)c12 [Compound 199, 3-hydroxy-4-(decyloxy)-5-(methoxy)-2H-1-benzopyran-2-one]	32%
CCCCCCCCCCOc1cccc2c(O)c(O)c(=O)oc12 [Compound 144, 3,4-(dihydroxy)-8-(decyloxy)-2H-1-benzopyran-2-one]	34%
CC(=O)Oc1c(O)c2cc(O)ccc2oc1=O [Compound 264, 3-(acetoxy)-4,6-(dihydroxy)-2H-1-benzopyran-2-one]	36%
COc1cccc2c(OC(C)=O)c(O)c(=O)oc12 [Compound 112, 3-hydroxy-4-(acetoxy)-8-(methoxy)-2H-1-benzopyran-2-one]	32%
CCCCCCCCCCOc1cccc2oc(=O)c(OC)c(OC(=O)c3ccccc3)c12 [Compound 236, 3-(methoxy)-4-(benzoyloxy)-5-(decyloxy)-2H-1-benzopyran-2-one]	31%
